Experimental data published in US12655150B2 (Cedilla Therapeutics, Inc., priority 2021, dated 2026).

Each compound was assayed on NCI-H226 (assay: 72H TEAD Proliferation Assay (Cell Titer Glo 2.0)). Settings: CTG 2.0, cell line not given (NCI-H226 responsive, NCI-H28 non-responsive).
Type: cell-based
Outline: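 Growth read-out is ATP luminescence (CellTiter-Glo 2.0) after 72 h compound exposure, corrected for no-CTG background and day-0 values, with GI50 from nonlinear regression. Sensitive line NCI-H226 (NF2-deficient); non-responsive NCI-H28 (NF2 wild type) distinguishes TEAD-driven from nonspecific growth inhibition.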

| GI50 [nM] | Compound |
| --- | --- |
| 5000 to 10000 | CC(C)(C)c1ccc(-c2nc3cc(S(C)(=N)=O)ccc3n3cccc23)cc1 (single isomer, unassigned) [I-209, (4-(4-(tert-Butyl)phenyl)pyrrolo[1,2-a]quinoxalin-7-yl)(imino)(methyl)-16-sulfanone] |

Same assay, conditions: Homo sapiens, NCI-H226, 72 h, CTG 2.0, cell line not given (NCI-H226 responsive, NCI-H28 non-responsive)

| GI50 [nM] | Compound |
| --- | --- |
| > 10000 | O=C(O)c1ccc2c(c1)nc(-c1ccc(F)cc1F)c1cccn12 [I-44, 4-(2,4-Difluorophenyl)pyrrolo[1,2-a]quinoxaline-7-carboxylic acid] |
| 1000 to 5000 | C[C@@H](CO)NC(=O)c1ccc2c(OCC3CC3)cc(-c3ccc(C(F)(F)F)cc3)nc2c1 [I-374, (S)-4-(cyclopropylmethoxy)-N-(1-hydroxypropan-2-yl)-2-(4-(trifluoromethyl)phenyl)quinoline-7-carboxamide] |
| ≤ 1000 | C=CC(=O)NCc1cn2ccnc2c(-c2ccc(SC(F)(F)F)cc2)n1 [I-448, N-((8-(4-((trifluoromethyl)thio)phenyl)imidazo[1,2-a]pyrazin-6-yl)methyl)acrylamide] |
| ≤ 1000 | COc1cc(-c2ccc(C(F)(F)F)cc2)nc2cc(C(=O)N[C@@H](C)c3cccc(N)c3)ccc12 [I-350, (S)—N-(1-(3-aminophenyl)ethyl)-4-methoxy-2-(4-(trifluoromethyl)phenyl)quinoline-7-carboxamide] |
| ≤ 1000 | C=CC(=O)NCc1cn2ccnc2c(Nc2ccc(C(F)(F)F)cn2)n1 [I-170, N-((8-((5-(trifluoromethyl)pyridin-2-yl)amino)imidazo[1,2-a]pyrazin-6-yl)methyl)acrylamide] |
| ≤ 1000 | COc1cccc([C@H](C)NC(=O)c2ccc3c(OC)cc(-c4ccc(C(F)(F)F)cc4)nc3c2)c1 [I-348, (S)-4-methoxy-N-(1-(3-methoxyphenyl)ethyl)-2-(4-(trifluoromethyl)phenyl)quinoline-7-carboxamide] |
| ≤ 1000 | C=CC(=O)N1CCc2c(cccc2-c2ccc(C(F)(F)F)cc2)C1 [I-136, 1-(5-(4-(Trifluoromethyl)phenyl)-3,4-dihydroisoquinolin-2(1H)-yl)prop-2-en-1-one] |
| > 10000 | CC(C)(C)c1ccc(-c2nc(C(=O)O)cn3cnnc23)cc1 [I-93, 8-(4-(tert-Butyl)phenyl)-[1,2,4]triazolo[4,3-a]pyrazine-6-carboxylic acid] |
| 1000 to 5000 | Cc1cc2c(-c3ccc(C(C)(C)C)cc3)nc3cc(C(=O)O)ccc3n2c1 [I-83, 4-(4-(tert-Butyl)phenyl)-2-methylpyrrolo[1,2-a]quinoxaline-7-carboxylic acid] |
| ≤ 1000 | COc1cc(-c2ccc(C(F)(F)F)cc2)nc2cc(C(=O)N[C@@H](C)c3cccc(O)c3)ccc12 [I-349, (S)—N-(1-(3-hydroxyphenyl)ethyl)-4-methoxy-2-(4-(trifluoromethyl)phenyl)quinoline-7-carboxamide] |
| > 10000 | O=C(O)c1ccc2c(c1)nc(C1CC1)c1nccn12 [I-70, 4-Cyclopropylimidazo[1,2-a]quinoxaline-7-carboxylic acid] |
| ≤ 1000 | C=CC(=O)Nc1ccc2cnc(-c3ccc(C(C)(C)C)cc3)nc2c1 [I-80, N-(2-(4-(tert-butyl)phenyl)quinazolin-7-yl)acrylamide] |
| ≤ 1000 | COCC(C)NC(=O)N1CCc2c(cccc2-c2ccc(C(F)(F)F)cc2)C1 (centres unmarked) [I-78, N-(1-methoxypropan-2-yl)-5-(4-(trifluoromethyl)phenyl)-3,4-dihydroisoquinoline-2(1H)-carboxamide] |
| > 10000 | CC1(C)CC2(CCN(c3nc4cc(C(=O)O)ccc4n4cccc34)CC2)CO1 [I-34, 4-(3,3-Dimethyl-2-oxa-8-azaspiro [4.5]decan-8-yl) pyrrolo[1,2-a] quinoxaline-7-carboxylic acid] |
| ≤ 1000 | COCc1cc(-c2ccc(C(F)(F)F)cc2)nc2cc(C(=O)O)ccc12 [I-270, 4-(methoxymethyl)-2-(4-(trifluoromethyl)phenyl)quinoline-7-carboxylic acid] |
| ≤ 1000 | C[C@H](CO)NC(=O)c1ccc2c(OC(F)F)cc(-c3ccc(C(F)(F)F)cc3)nc2c1 [I-330, (R)-4-(difluoromethoxy)-N-(1-hydroxypropan-2-yl)-2-(4-(trifluoromethyl)phenyl)quinoline-7-carboxamide] |
| > 10000 | CC(C)(C)c1ccc(CCn2ccc3cc(C(=O)O)ccc32)cc1 [Compound I-161] |
| 5000 to 10000 | C=CC(=O)Nc1ncc2c(ccn2-c2ccc(C(C)(C)C)cc2)n1 [I-100, N-(5-(4-(tert-butyl)phenyl)-5H-pyrrolo[3,2-d]pyrimidin-2-yl)acrylamide] |
| ≤ 1000 | O=C(O)c1ccc2c(c1)nc(-c1ccc(C(F)(F)F)cc1)c1cc(OC(F)F)cn12 [I-275, 2-(difluoromethoxy)-4-(4-(trifluoromethyl)phenyl)pyrrolo[1,2-a]quinoxaline-7-carboxylic acid] |
| ≤ 1000 | O=C(O)c1ccc2c(c1)nc(-c1ccc(C(F)(F)F)cc1)c1c(F)ccn12 [I-280, 3-fluoro-4-(4-(trifluoromethyl)phenyl)pyrrolo[1,2-a]quinoxaline-7-carboxylic acid] |
| 5000 to 10000 | C=CC(=O)Nc1c(C)nc2c(-c3ccc(C(C)(C)C)cc3)nccn12 [I-257, N-(8-(4-(tert-butyl)phenyl)-2-methylimidazo[1,2-a]pyrazin-3-yl)acrylamide] |
| > 10000 | COC(=O)c1ccc2c(c1)nc(-c1ccc(C(C)(C)C)cc1)c1cccn12 [Compound I-164] |

| GI50 [nM] | Compound |
| --- | --- |
| ≤ 1000 | C=CC(=O)NCc1cn2ccnc2c(Oc2cccc(C(C)(C)C)c2)n1 [I-441, N-((8-(3-(tert-butyl)phenoxy)imidazo[1,2-a]pyrazin-6-yl)methyl)acrylamide] |
| ≤ 1000 | Cc1cc(-c2ccc(C(F)(F)F)cc2)nc2cc(C(=O)NCCO)ccc12 [I-259, N-(2-hydroxyethyl)-4-methyl-2-(4-(trifluoromethyl)phenyl)quinoline-7-carboxamide] |
| ≤ 1000 | C=CC(=O)Nc1ccc2c(c1)nc(-c1ccc(C(F)(F)F)cc1)c1cccn12 [I-120, N-(4-(4-(trifluoromethyl)phenyl)pyrrolo[1,2-a]quinoxalin-7-yl)acrylamide] |
| 5000 to 10000 | O=C(O)c1ccc2c(c1)nc(N1CCC3(CCCOC3)CC1)c1cccn12 [I-26, 4-(2-Oxa-9-azaspiro[5.5]undecan-9-yl)pyrrolo[1,2-a]quinoxaline-7-carboxylic acid] |
| ≤ 1000 | C=CC(=O)Nc1ccc2c(c1)nc(-c1ccc(C(F)(F)F)cn1)c1cccn12 [I-202, N-(4-(5-(trifluoromethyl)pyridin-2-yl)pyrrolo[1,2-a]quinoxalin-7-yl)acrylamide] |
| > 10000 | O=C(O)c1ccc2c(c1)nc(N1CCC(F)(F)CC1)c1cccn12 [I-39, 4-(4,4-Difluoropiperidin-1-yl) pyrrolo[1,2-a]quinoxaline-7-carboxylic acid] |
| ≤ 1000 | Cc1cc2c(-c3ccc(C(F)(F)F)cc3F)nc3cc(C(=O)O)ccc3n2c1 [I-84, 4-(2-Fluoro-4-(trifluoromethyl)phenyl)-2-methylpyrrolo[1,2-a]quinoxaline-7-carboxylic acid] |
| ≤ 1000 | O=C(O)c1ccc2c(c1)nc(-c1ccc(C(F)(F)F)cc1)c1cccn12 [I-42, 4-(4-(Trifluoromethyl)phenyl)pyrrolo[1,2-a]quinoxaline-7-carboxylic acid] |
| ≤ 1000 | C=CC(=O)NCc1nc(-c2ccc(C(F)(F)F)cc2)c2cccnc2n1 [I-304, N-((4-(4-(trifluoromethyl)phenyl)pyrido[2,3-d]pyrimidin-2-yl)methyl)acrylamide] |
| ≤ 1000 | Cc1cn2cc(CNC(=O)/C=C/CF)nc(-c3ccc(C(F)(F)F)cc3)c2n1 [I-248, (E)-4-fluoro-N-((2-methyl-8-(4-(trifluoromethyl)phenyl)imidazo[1,2-a]pyrazin-6-yl)methyl)but-2-enamide] |
| 1000 to 5000 | O=C(O)c1ccc2c(c1)nc(N1CCC3(CCCCC3)C1)c1cccn12 [I-28, 4-(2-Azaspiro [4.5]decan-2-yl) pyrrolo[1,2-a] quinoxaline-7-carboxylic acid] |
| 1000 to 5000 | COc1cc(-c2ccc(C(F)(F)F)cn2)nc2cc(C(=O)O)ccc12 [I-361, 4-methoxy-2-(5-(trifluoromethyl)pyridin-2-yl)quinoline-7-carboxylic acid] |
| 1000 to 5000 | CN(C#N)Cc1cn2ccnc2c(-c2ccc(C(F)(F)F)cc2)n1 [I-239, N-methyl-N-((8-(4-(trifluoromethyl)phenyl)imidazo[1,2-a]pyrazin-6-yl)methyl)cyanamide] |
| ≤ 1000 | C=CC(=O)NCc1cn2ncnc2c(-c2ccc(C(F)(F)F)cc2)n1 [I-236, N-((8-(4-(Trifluoromethyl)phenyl)-[1,2,4]triazolo[1,5-a]pyrazin-6-yl)methyl)acrylamide] |
| ≤ 1000 | C=CC(=O)NCc1nc(-c2ccc(C(F)(F)F)cc2)cc2nccn12 [I-322, N-((7-(4-(Trifluoromethyl)phenyl)imidazo[1,2-c]pyrimidin-5-yl)methyl)acrylamide] |
| ≤ 1000 | COc1cc2c(-c3ccc(C(C)(C)C)cc3)nc3cc(C(=O)O)ccc3n2c1 [I-180, 4-(4-(tert-butyl)phenyl)-2-methoxypyrrolo[1,2-a]quinoxaline-7-carboxylic acid] |
| > 10000 | O=C(O)c1ccc2c(c1)nc(N1CCCC(F)(F)C1)c1cccn12 [I-5, 4-(3,3-Difluoropiperidin-1-yl)pyrrolo[1,2-a]quinoxaline-7-carboxylic acid] |
| > 10000 | COc1ccc(-c2nc3cc(C(=O)O)ccc3n3ccnc23)cc1 [I-64, 4-(4-Methoxyphenyl)imidazo[1,2-a]quinoxaline-7-carboxylic acid] |
| ≤ 1000 | C=CC(=O)Nc1ccc2cc(C)c(-c3ccc(C(C)(C)C)cc3)nc2c1 [I-98, N-(2-(4-(tert-butyl)phenyl)-3-methylquinolin-7-yl)acrylamide] |
| > 10000 | CC(C)(C)c1ccc(-c2nc(CCC(=O)O)cn3ccnc23)cc1 [I-153, 3-(8-(4-(tert-Butyl)phenyl)imidazo[1,2-a]pyrazin-6-yl)propanoic acid] |
| > 10000 | CC(C)(C)c1cccc(-c2nc3cc(C(=O)O)ccc3n3ccnc23)c1 [I-65, 4-(3-(tert-Butyl)phenyl)imidazo[1,2-a]quinoxaline-7-carboxylic acid] |
